Results reported in patent US9175077B2, “Nucleic acids encoding biologically active polypeptides derived from a novel early stage pregnancy factor designated maternin (MA)” (NOBEL BIOSCIENCES LLC, priority 1999, dated 2015).

Assays:
[1] = Lethally irradiated rats and mice; conditions: for survival: treated at time of radiation, 3×/week for 4 weeks
[2] = system: HIV-1 gene expression; assay: HIV-1 transgenic mice, pups feeding from treated mothers; type: in vivo; conditions: for survival / development of pups (qualitative): mothers treated, pups breast fed
Text: The transgenic mice contain 5.1 kb of the HIV-1 proviral genome, lacking gag and pol genes and 2.3 kb of vector.^172 The newly developed transgenic rat contains the same HIV-1 sequences and vector.
Twenty-four hours after birth the mothers were either inoculated subcutaneously daily for 10 days or received an implanted osmotic pump delivering 30-150 pmoles of either native or synthetic MA or pMA. Various control polypeptides were used at equimolar or vast molar excess. The newborn pups were then allowed to feed from the foster mother breast milk over the entire period. Since the animals are at risk from needle inoculation, breastfeeding was the chosen route for MA administration.
In these experiments total RNA was extracted from samples of skin RNA206 10 days after birth of MA treated and untreated mice. One ug of RNA was reverse transcribed into cDNA using random hexamer primer and […] reverse transcriptase (Life Technologies, Inc.) in a final vol. Of 30 ul. Three ul of each reaction was used for PCR amplification of the HIV-1 gene sequences (env, tat, nef, and rev) as described […], and glyceraldehyde 3-phosphate dehydrogenase (GAPDH) was amplified from each sample for normalization. After 25 cycles, 10% of the products were resolved by electrophoresis on 2% agarose gels, transferred to nitrocellulose membranes by Southern blotting, and hybridized to fluorescein isthiocyanate-labeled oligonucleotide probes complementary to internal sequences of the amplicons […]. Bound probes were detected by chemiluminescence (Amersham) and relative mRNA levels determined by densitrometry after normalization with GAPDH mRNA levels.

[3] = system: human tumor cells; type: cell-based
Procedure: The anti-tumor activities of MA were assessed in several in vitro and in vivo systems using published methods.^166 In vitro studies were with a wide variety of human tumor cell lines as well as short-term cultures of cells from biopsy samples obtained from tumors. The assays included effects of MA on colony formation, cell number and viability (trypan blue), and apoptosis. Four measures of microscopy were used. In vivo studies included the effects of MA on tumors induced in immunodeficient mice by xenotransplanted various human neoplastic cells, spontaneous neoplasms of immuno-competent mice and rats, and a few standard tumors in immuno-competent mice. Representative examples are presented.
Cells (5×10^5/ml) were seeded in modified Eagle's medium supplemented with 10% FCS, 10% conditioned medium form PHA stimulated human lymphocytes, 2 mM glutamine in 0.8% V/V methylcellulose with or without various treatments in a final volume of 1.0 ml. Then 0.1 ml aliquots were seeded in 96 well flat bottom microtest plates and incubated at 37° C. in 5% CO2 in air for 7 days. Aggregates containing 50 cells or more were scored as colonies.
5×10^5 cells were seeded in triplicate on 24 gelatin coated wells in conditions as described for Panel A and treated with the indicated test materials. After 3 days the cells were dislodged from their monolayers by gentle pipetting with cell dissociation buffer (Life Technologies), counted after trypan blue staining and aliquots examined for Annexin V staining by indirect IFA […].
Studies of the anti-tumor cell effects of MA were extended to other carcinomas, melanoma, some hematopoietic tumors, and carcinomas of the colon, prostate, breast, lung, brain, pancreas, and kidney-using cell lines from these tumors. […] Many more types of tumor cells were studied utilizing other assays (see below).

VVCNYRDVRFESIRLPGCPRGVNPVVSYAVALSCQ [MA]
survival ([1]; higher dose, over 100 days): 100% | gastrointestinal distress ([1]; in vivo): little or no gastrointestinal distress | survival ([1]; lowest doses): 80% | relative survival ([1]; pretreated, higher dose): survived longest | weight over the ten day period ([2]; 30-150 pmoles): quadrupled their weight | animals that eventually died ([2]; low dose (30 pmoles), after 2 mos): about 50% | survival / development of pups (qualitative) [2]: survived | survival / development of pups (qualitative) ([2]; listed as native MA): normal development | HIV-1 viral expression in tissues ([2]; mouse, in vivo): marked inhibition of viral expression | effect on HTLV-I induced adult T-cell leukemia [3]: no effect | effect on some β-cell lymphomas [3]: no effect
